Experimental data taken from paper PMC9501810, “Bitter Peptides YFYPEL, [sequence], and [sequence], Released during Gastric Digestion of Casein, Stimulate Mechanisms of Gastric Acid Secretion via Bitter Taste Receptors TAS2R16 and TAS2R38” (Journal of Agricultural and Food Chemistry, 2022).

How the values were obtained:
TAS2R5 = experiment: RT-qPCR gene expression of TAS2R5 in HGT-1 cells; format: cell-based, human; details: VAPFPEVF 17.5 µM, YFYPEL 0.03 µM, YQEPVLGPVRGPFPIIV 0.4 µM, normalized to PPIA and GAPDH and untreated cells, mean, n = 3–5
Description: (§1) For mRNA expression analysis, 800,000 cells were seeded in a T25 cell culture flask (25 cm^2) 1 day before the experiment. After incubation with 17.5 μM […], 0.03 μM YFYPEL, or 0.4 μM […] for 15, 30, 60, and 120 min, RNA was isolated using the peqGOLD RNA Kit (VWR Peqlab, USA) following the manufacturer’s protocol. Determination of RNA concentration (A260/A280 between 2.03 and 2.09) was performed on a NanoDrop One^c (Thermo Fisher Scientific Inc., USA). RNA integrity number (RIN 9.9–10.0, version 2.6, assay class Eukaryote Total RNA Nano) was analyzed using a 2100 Bioanalyzer (Agilent Technologies, USA). Removal of gDNA and synthesis of cDNA were performed using the iScript gDNA Clear cDNA Synthesis Kit (BioRad, Feldkirchen, Germany) following the manufacturer’s protocol. Real-time-qPCR (RT-qPCR) was performed with 50 ng cDNA amplified with SsoAdvanced Universal SYBR Green Supermix (Bio-Rad Laboratories, Inc., USA). The sequences of the forward and reverse primers of the 25 TAS2Rs were taken from Liszt et al.([13]) (Supporting Information Table-SI 3). Verified primers for the TAS1Rs (TAS1R1: qHsaCID0013443; TAS1R2: qHsaCID0016106; TAS1R3: qHsaCED0002321) and for MAPK1 (qHsaCEP0050000) were obtained from Bio-Rad Laboratories. PPIA[37] and GAPDH[38] were used as reference genes. The effects of the peptides on gene expression were analyzed in comparison to untreated control cells.

TAS2R30 = experiment: RT-qPCR gene expression of TAS2R30 in HGT-1 cells; format: cell-based, human; details: VAPFPEVF 17.5 µM, YFYPEL 0.03 µM, YQEPVLGPVRGPFPIIV 0.4 µM, normalized to PPIA and GAPDH and untreated cells, mean, n = 3–5
Description: as §1

TAS2R14 = experiment: RT-qPCR gene expression of TAS2R14 in HGT-1 cells; format: cell-based, human; details: VAPFPEVF 17.5 µM, YFYPEL 0.03 µM, YQEPVLGPVRGPFPIIV 0.4 µM, normalized to PPIA and GAPDH and untreated cells, mean, n = 3–5
Description: as §1

TAS2R20 = experiment: RT-qPCR gene expression of TAS2R20 in HGT-1 cells; format: cell-based, human; details: VAPFPEVF 17.5 µM, YFYPEL 0.03 µM, YQEPVLGPVRGPFPIIV 0.4 µM, normalized to PPIA and GAPDH and untreated cells, mean, n = 3–5
Description: as §1

TAS2R1 = experiment: RT-qPCR gene expression of TAS2R1 in HGT-1 cells; format: cell-based, human; details: VAPFPEVF 17.5 µM, YFYPEL 0.03 µM, YQEPVLGPVRGPFPIIV 0.4 µM, normalized to PPIA and GAPDH and untreated cells, mean, n = 3–5
Description: as §1

TAS2R42 = experiment: RT-qPCR gene expression of TAS2R42 in HGT-1 cells; format: cell-based, human; details: VAPFPEVF 17.5 µM, YFYPEL 0.03 µM, YQEPVLGPVRGPFPIIV 0.4 µM, normalized to PPIA and GAPDH and untreated cells, mean, n = 3–5
Description: as §1

TAS1R3 = experiment: RT-qPCR gene expression of TAS1R3 in HGT-1 cells; format: cell-based, human
Description: as §1

pepsin = experiment: In vitro gastric digestion of casein with targeted UHPLC-MS/MS-MRM quantitation of peptides; format: in vitro ADME, porcine; details: 37 °C, n = 4; for degradation of the peptide during further in vitro gastric digestion: up to 6 h
Description: The in vitro digestion was based on the Nature protocol established by Brodkorb et al.([30]) For this, simulated salivary fluid (SSF, containing 15.1 mM KCl, 3.7 mM KH2PO4, 13.6 mM NaHCO3, 0.15 mM MgCl2(H2O)6, 0.06 mM (NH4)2CO3, 1.1 mM HCl, and 1.5 mM CaCl2(H2O)2) and simulated gastric fluid (SGF, containing 6.9 mM KCl, 0.9 mM KH2PO4, 25.0 mM NaHCO3, 47.2 mM NaCl, 0.12 mM MgCl2(H2O)6, 0.5 mM (NH4)2CO3, 15.6 mM HCl, and 0.15 mM CaCl2(H2O)2) were prepared. A total amount of 100 mg casein was suspended in 3 mL of SSF and incubated for 5 min at 37 °C in the tube rotator. After taking a sample (500 μL, t = 0 h), 2 mL of SGF was added and the pH was adjusted to 3 with 100 μL of HCl (1 M). After addition of 125 μL of pepsin solution (80,000 U/mL in 10 mM HCl), 275 μL of H2O was added to fill up to 5 mL. This was followed by further incubation at 37 °C in a tube rotator for 6 h. 500 μL of samples was taken at 0.25, 0.5, 0.75, 1, 2, 3, 4, 5, and 6 h, respectively. The samples were frozen in liquid nitrogen and stored at −80 °C until further analysis. For MS experiments, all samples were diluted 1:1 with 10% MeCN.
All targeted proteomics LC–MS/MS measurements were performed using a Sciex ExionLC AC (Sciex, Darmstadt, Germany) coupled to a 6500+ QTrap LC–MS/MS system (Sciex, Darmstadt, Germany) operating in the positive electrospray ionization mode. Data acquisition and instrumentation control were performed with AnalystTF software (v 1.7.1; Sciex, Darmstadt, Germany). Separation was performed using a 100 × 2.1 mm, 1.7 μm, Kinetex C18 column (Phenomenex, Aschaffenburg, Germany) with a guard column of the same type with 0.1% aqueous formic acid and acetonitrile containing 0.1% formic acid at a flow rate of 0.25 mL/min. The gradient was based on the following scheme: 0 min, 15% B; 7 min, 40% B; 7.5 min, 98% B; 10.5 min, 98% B; 10.8 min, 15% B; and 15 min, 15% B. The column oven temperature was set at 40 °C, and the injection volume was 1 μL per sample. For MS/MS measurements, the same parameters were used for all samples (ion spray voltage […], source temperature 450 °C, nebulizing gas 60 psi, and heating gas 30 psi). Nitrogen was set to 35 psi and served as a curtain gas to effectively dissolve the ions. To optimize the parameters DP, CE, and collision cell exit potential for each peptide and transition (Supporting Information Table-SI 2), standard solutions of the five synthesized peptides were injected directly into the MS ion source. Ionization parameters were optimized in positive ESI mode using AnalystTF software (v 1.7.1; Sciex, Darmstadt, Germany). For the preparation of the calibration curves, five peptides were dissolved individually in D2O (600 μL) and the concentration of the stock solutions was determined by qNMR.[35] For each peptide, seven calibration solutions (0.5, 1, 5, 10, 50, 100, and 200 μM) were diluted in 5% MeCN from these stock solutions. The data were analyzed using MultiQuant software (v 3.0.3; Sciex, Darmstadt, Germany).

[1] = 15/30/60/120 min, VAPFPEVF 17.5 µM, YQEPVLGPVRGPFPIIV 0.4 µM, n = 3

Substance | change in gene expression of TAS2R5 (TAS2R5; incubation 15 min) [fold change] | change in gene expression of TAS2R5 (TAS2R5; incubation 30 min) [fold change] | change in gene expression of TAS2R5 (TAS2R5; incubation 60 min) [fold change] | change in gene expression of TAS2R5 (TAS2R5; incubation 120 min) [fold change] | change in gene expression of TAS2R30 (TAS2R30; incubation 15 min) [fold change] | change in gene expression of TAS2R30 (TAS2R30; incubation 30 min) [fold change] | change in gene expression of TAS2R30 (TAS2R30; incubation 60 min) [fold change] | change in gene expression of TAS2R30 (TAS2R30; incubation 120 min) [fold change] | change in gene expression of TAS2R14 (TAS2R14; incubation 15 min) [fold change] | change in gene expression of TAS2R14 (TAS2R14; incubation 30 min) [fold change] | change in gene expression of TAS2R14 (TAS2R14; incubation 60 min) [fold change] | change in gene expression of TAS2R14 (TAS2R14; incubation 120 min) [fold change] | change in gene expression of TAS2R20 (TAS2R20; incubation 15 min) [fold change] | change in gene expression of TAS2R20 (TAS2R20; incubation 30 min) [fold change] | change in gene expression of TAS2R20 (TAS2R20; incubation 60 min) [fold change] | change in gene expression of TAS2R20 (TAS2R20; incubation 120 min) [fold change] | change in gene expression of TAS2R1 (TAS2R1; incubation 15 min) [fold change] | change in gene expression of TAS2R1 (TAS2R1; incubation 30 min) [fold change] | change in gene expression of TAS2R1 (TAS2R1; incubation 60 min) [fold change] | change in gene expression of TAS2R1 (TAS2R1; incubation 120 min) [fold change] | other results
VAPFPEVF [bitter casein peptide αS1-CN25–32] | 0.91 | 1.05 | 0.93 | 1.23 | 0.56 | 1.53 | 0.75 | 1.62 | 0.67 | 0.97 | 0.86 | 1.08 | 0.70 | 1.33 | 0.87 | 1.78 | 0.79 | 1.36 | 0.44 | 1.62 | change in gene expression of TAS2R42 (TAS2R42; incubation 15 min): 0.52 fold change; change in gene expression of TAS2R42 (TAS2R42; incubation 30 min): 0.88 fold change; change in gene expression of TAS2R42 (TAS2R42; incubation 60 min): 0.71 fold change; change in gene expression of TAS2R42 (TAS2R42; incubation 120 min): 1.20 fold change; change in expression of TAS1R3 (TAS1R3; [1]): no significant effect; degradation of the peptide during further in vitro gastric digestion (pepsin; SGF pH 3 with pepsin): no noticeable degradation
YFYPEL [bitter casein peptide αS1-CN144–149] | 1.34 | 1.03 | 0.90 | 1.02 | 1.79 | 0.62 | 0.89 | 1.15 | 1.11 | 0.92 | 0.99 | 1.21 | 1.37 | 0.93 | 0.94 | 1.16 | 0.36 | 1.03 | 0.55 | 0.73 | change in gene expression of TAS2R42 (TAS2R42; incubation 15 min): 1.17 fold change; change in gene expression of TAS2R42 (TAS2R42; incubation 30 min): 0.55 fold change; change in gene expression of TAS2R42 (TAS2R42; incubation 60 min): 0.69 fold change; change in gene expression of TAS2R42 (TAS2R42; incubation 120 min): 0.93 fold change; change in expression of TAS1R3 (TAS1R3; 0.03 µM YFYPEL, 15 min, p < 0.0001): significant increase; degradation of the peptide during further in vitro gastric digestion (pepsin; SGF pH 3 with pepsin): no noticeable degradation
YQEPVLGPVRGPFPIIV [bitter casein peptide βA1/A2-CN193–209] | 1.25 | 1.45 | 1.39 | 1.22 | 0.74 | 1.88 | 1.20 | 0.89 | 0.85 | 1.08 | 1.03 | 1.08 | 0.95 | 1.42 | 1.38 | 1.31 | 0.33 | 0.43 | 1.00 | 0.84 | change in gene expression of TAS2R42 (TAS2R42; incubation 15 min): 0.62 fold change; change in gene expression of TAS2R42 (TAS2R42; incubation 30 min): 1.38 fold change; change in gene expression of TAS2R42 (TAS2R42; incubation 60 min): 1.18 fold change; change in gene expression of TAS2R42 (TAS2R42; incubation 120 min): 0.94 fold change; change in expression of TAS1R3 (TAS1R3; [1]): no significant effect; final concentration after 6 h of in vitro digestion (pepsin; 100 mg casein, SGF pH 3 with pepsin, 6 h, mean): 22.5 µM; highest concentration released during in vitro digestion (pepsin; 100 mg casein, SSF then SGF pH 3 with pepsin, 0–6 h, mean): up to 300.8 μM; degradation of the peptide during further in vitro gastric digestion (pepsin; SGF pH 3 with pepsin): continuous cleavage over the 6 h
